From article PMC7202735 (Journal of medicinal chemistry, 2018)

Columns and labels:
[1] = tested on: CB1; conditions: cited from earlier work
[2] = tested on: MG63 cells; assay: Wound healing scratch assay, MG63; type: cell-based, human; conditions: MG63 cell line, Figure 2d
[3] = tested on: endothelial HUVEC cells; assay: Angiogenesis assay: endothelial tube formation on matrigel; type: cell-based, human; conditions: 0.5 μM and 1 μM, 5 hours
[4] = tested on: 143B cells; assay: Wound healing scratch assay, 143B; type: cell-based, human; conditions: 143B cell line, with rimonabant, Supplementary Figure S4
[5] = tested on: 143B; assay: Cell cycle analysis by propidium iodide staining, 143B; type: cell-based, human; conditions: treated 24 hours
[6] = biological target: T1, Fatty acid amide hydrolase (FAAH) (Sus scrofa, UniProt Q9TUI8); conditions: cited from earlier work
T1 sequence (Q9TUI8 1-579): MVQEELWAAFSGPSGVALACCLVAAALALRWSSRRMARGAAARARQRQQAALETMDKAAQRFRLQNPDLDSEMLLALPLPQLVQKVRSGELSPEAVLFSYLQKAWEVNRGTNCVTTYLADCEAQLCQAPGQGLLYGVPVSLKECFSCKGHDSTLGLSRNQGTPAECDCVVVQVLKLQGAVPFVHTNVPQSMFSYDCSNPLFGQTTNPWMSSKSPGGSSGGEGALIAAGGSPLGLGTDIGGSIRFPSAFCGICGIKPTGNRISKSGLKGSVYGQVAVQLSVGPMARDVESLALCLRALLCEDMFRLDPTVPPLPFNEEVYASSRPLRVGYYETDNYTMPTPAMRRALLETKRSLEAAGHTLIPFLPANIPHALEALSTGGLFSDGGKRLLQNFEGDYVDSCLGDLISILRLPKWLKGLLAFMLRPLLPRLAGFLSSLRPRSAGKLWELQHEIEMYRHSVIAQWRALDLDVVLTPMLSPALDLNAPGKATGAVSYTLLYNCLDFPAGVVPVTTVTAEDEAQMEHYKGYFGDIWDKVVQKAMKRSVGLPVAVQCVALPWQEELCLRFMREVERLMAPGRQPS

[7] = tested on: HOS, 143B and MG63 cells; type: cell-based, human; conditions: for induction of apoptosis as compared to no treatment control: all three cell lines, 12.5 μM; for apoptotic activity as compared to control: antagonist alone, supplementary tables 2–4

In the case of `CCCCCC=CCC=CCC=CCC=CCCCC(=O)NC(C)CO` (single isomer, unassigned) [R isomer], the “CB1 binding, fold higher as compared to AEA” value [1] is given as 4 fold.

For `CCCCCC=CCC=CCC=CCC=CCCCC(=O)NC(C)CO` (single isomer, unassigned) [S isomers], the “CB1 binding, fold lower as compared to AEA” value [1] is listed as 2 fold.

For `CC/C=C\C/C=C\C/C=C\CC1OC1C/C=C\C/C=C\CCC(=O)NC1CC1` (stereo not drawn) [10,11-EDP-CA, (4Z,7Z)-N-cyclopropyl-9-(3-((2Z,5Z,8Z)-undeca-2,5,8-trien-1-yl)oxiran-2-yl)nona-4,7-dienamide], the “restriction in wound healing as compared to the control” value (“restriction … compared to the control” below) [2] was “comparable to 10,11-EDP-EA” and the “tube formation as compared to the vehicle control” value [3] was “Restriction of tube formation”.

With `CC/C=C\C/C=C\C/C=C\CC1OC1C/C=C\C/C=C\CCC(=O)NCCO` (stereo not drawn) [10,11-EDP-EA, (4Z,7Z)-N-(2-hydroxyethyl)-9-(3-((2Z,5Z,8Z)-undeca-2,5,8-trien-1-yl)oxiran-2-yl)nona-4,7-dienamide] the “reduction of cell migration in presence of CB1 receptor antagonist” value [4] was “completely abolished” and the “tube formation as compared to the vehicle control” value [3] was “Restriction of tube formation”.

In the case of `CC/C=C\C/C=C\C/C=C\CC1OC1C/C=C\C/C=C\CCC(=O)NC(C)CO` (stereo not drawn) [10,11-EDP-IA, (4Z,7Z)-N-(1-hydroxypropan-2-yl)-9-(3-((2Z,5Z,8Z)-undeca-2,5,8-trien-1-yl)oxiran-2-yl)nona-4,7-dienamide], the “restriction … compared to the control” value [2] is reported as “slightly poorer than the control” and the “tube formation as compared to the vehicle control” value [3] is reported as “Restriction of tube formation”.

For `CC/C=C\C/C=C\C/C=C\CC1OC1C/C=C\C/C=C\CCC(=O)NCCCO` (stereo not drawn) [10,11-EDP-NA, (4Z,7Z)-N-(3-hydroxypropyl)-9-(3-((2Z,5Z,8Z)-undeca-2,5,8-trien-1-yl)oxiran-2-yl)nona-4,7-dienamide], the “restriction … compared to the control” value [2] was “slightly poorer than the control”, the “percentage of cells in S” value [5] was “slight suppression” and the “tube formation as compared to the vehicle control” value [3] was “Restriction of tube formation”.

In the case of `CCC1OC1C/C=C\C/C=C\C/C=C\C/C=C\C/C=C\CCC(=O)NCCO` (stereo not drawn) [19,20-EDP-EA], the rate of hydrolysis [6] is given as 150 pmol min−1 mg protein−1.

For `CCCCC/C=C\C/C=C\C/C=C\C/C=C\CCCC(=O)O` [AA, arachidonic acid], the “induction of apoptosis as compared to no treatment control” value [7] was “no induction of apoptosis”.

With `CCCCC/C=C\C/C=C\C/C=C\C/C=C\CCCC(=O)NCCO` [AEA, arachidonoyl ethanolamide] the “induction of apoptosis as compared to no treatment control” value [7] was “no induction of apoptosis”.

With `COc1ccc(C(=O)c2c(C)n(CCN3CCOCC3)c3cc(I)ccc23)cc1` [AM 630] the “apoptotic activity as compared to control” value [7] was “very limited apoptotic activity”.

In the case of `CC/C=C\C/C=C\C/C=C\C/C=C\C/C=C\C/C=C\CCC(=O)O` [DHA, docosahexaenoic acid], the “induction of apoptosis as compared to no treatment control” value [7] is reported as “no induction of apoptosis”.

In the case of `CC/C=C\C/C=C\C/C=C\C/C=C\C/C=C\C/C=C\CCC(=O)NCCO` [DHEA, docosahexaenoylethanolamide], the “induction of apoptosis as compared to no treatment control” value [7] is reported as “no induction of apoptosis”.

With `Cc1c(C(=O)NN2CCCCC2)nn(-c2ccc(Cl)cc2Cl)c1-c1ccc(Cl)cc1` [rimonabant] the “apoptotic activity as compared to control” value [7] was “very limited apoptotic activity”.
